Key:
Wistar rats = assay: Prepulse inhibition (PPI) test with MK-801; format: in vivo, rat; settings: i.p.
Protocol: All behavioral procedures were conducted using drug-naive male Wistar rats (Charles River, Sulzfeld, Germany), (n = 8/per group). Animals were housed in groups of four per standard plastic cage under controlled environmental conditions (temperature: 22 ± 1 °C, humidity: 60%, and a 12:12 light-dark cycle with lights on at 07:00 a.m.). Animals were obtained from the breeder 2 weeks prior to the initiation of behavioral procedures, during which time they were weighed and handled multiple times. Animals had ad libitum access to tap water and standard laboratory chow (Labofeed H, WPIK, Kcynia, Poland). […]
The PPI apparatus consisted of eight startle chambers (SR-LAB, San Diego Instruments, San Diego, CA, USA). […] Startle responses, reflecting the movement of animals within the cylinder following an acoustic stimulus, were measured with a piezoelectric transducer positioned beneath the frame. […]
The preliminary stimuli were followed by 60 trials of varying intensities presented in random order, with a mean intertrial interval (ITI) of 22.5 s. […] Startle amplitudes were calculated as the average response across 10 trials for each stimulation type. […] Startle responses (in manufacturer’s arbitrary units), and magnitudes of PPI (%) were analyzed with the aid of a one-way analysis of variance (ANOVA). […]

[1] = rats, i.p., 3 mg/kg, ref Mordyl, B. et al. J. Med. Chem. 2024, 67 (24), 21859–21889, cited from earlier work
MDR1-MDCKII cell line = assay: A–B and B–A permeability assay in MDR1-MDCKII cell line
Protocol: The A–B and B–A permeability assay using the MDR1-MDCKII cell line was conducted at Eurofins Discovery according to a well-established protocol.

Cc1ccc2nc(-c3ccc(F)cc3)c(CC(=O)N3CCCC3)n2c1.O=C(O)C(O)C(O)C(=O)O [Compound 17, 2-(4-Fluorophenyl)-6-methyl-3-(2-oxo-2-(pyrrolidin-1-yl)-ethyl)imidazo[1,2-a]pyridin-1-ium 3-carboxy-2,3-dihydroxy-propanoate]
Effect on basic startle response (Wistar rats; F(3,28) = 1.66, p = 0.2): did not affect significantly basic startle response
Effect on MK-801-induced PPI deficits (Wistar rats; prestimulus of 84 and 90 dB, p = 0.82 and p = 0.72): the effect did not reach statistical significance
t0.5 Plasma ([1]; n=6, plasma, terminal half life): 249 min
AUC0→t Brain ([1]; n=6, brain): 8229 ng·min/g
Cmax Brain ([1]; n=6, brain): 219.5 ng/g
MRT Brain ([1]; n=6, brain): 102.5 min
tmax Brain ([1]; n=6, brain): 5 min
t0.5 Brain ([1]; n=6, brain, terminal half life): 653.2 min
AUC0→t Plasma ([1]; n=6, plasma): 128271 ng·min/mL
MRT Plasma ([1]; n=6, plasma): 50.9 min
tmax Plasma ([1]; n=6, plasma): 5 min
Substrate for P-glycoprotein (P-gp) efflux (MDR1-MDCKII cell line; MDCK-MDR1 permeability assay): not to be a substrate
Permeability A–B (MDR1-MDCKII cell line; pH 7.4/7.4, 6 and 17 at 10 μM): 55.6 10^–6 cm/s
Permeability B–A (MDR1-MDCKII cell line; pH 7.4/7.4, 6 and 17 at 10 μM): 29.7 10^–6 cm/s
